US8012956B2, “Tropane compounds” (Exelixis, Inc., priority 2007, dated 2011)

Biological target: HSP90 (Homo sapiens, UniProt P07900)
Experiment: HSP90 inhibition (HSP90 IC50)
Format: biochemical

Row | Substance | IC50 [nM]
1 | N4-(8-{5-[({(1S)- 1-[4-(4- methylpiperazin-1- yl)phenyl]ethyl}amino)carbonyl]pyridin- 2-yl}-8-azabicyclo[3.2.1]oct-3- endo-yl)-2-(phenylamino)benzene- 1,4-dicarboxamide | < 500
2 | N4-[8-(5-butanoylpyridin-2-yl)-8- azabicyclo[3.2.1]oct-3-endo-yl]-2- [(cyclopropylmethyl)amino]benzene- 1,4-dicarboxamide | 500 to 999
3 | N4-{8-[5- (cyclopropylcarbonyl)pyridin-2-yl]-8- azabicyclo[3.2.1]oct-3-endo-yl}-2- [(cis-4-hydroxy-4- methylcyclohexyl)amino]benzene- 1,4-dicarboxamide | < 500
4 | N-[8-(5-acetylpyradin-2-yl)-8- azabicyclo[3.2.1]oct-3-endo-yl]-2- methyl-3-(methyloxy)benzamide | 500 to 999
5 | N-[(1S,2S)-2-hydroxycyclopentyl]-6- [3-endo-({[2-methyl-3- (methyloxy)phenyl]oarbonyl}amino)- 8-azabicyclo[3.2.1]oct-8-yl]pyridine- 3-carboxamide | 500 to 999
6 | N-{8-[5-(cyclopropylcarbonyl)pyridin- 2-yl]-8-azabicyclo[3.2.1]oct-3-endo- yl}-5-[(1-ethylpropyl)amino]-2- methylbenzene-1,4-dicarboxamide | < 500
